Measurements from US6916933B2, “4-pyridinyl-n-acyl-l-phenylalanines” (Hoffman-La Roche Inc., priority 1999, dated 2005).

Columns and labels:
[1] = target: T1, cell-surface VLA-4 (α4β1 integrin) on Ramos cells binding to immobilized VCAM-1 (Homo sapiens, UniProt P05556+P13612); assay: Ramos (VLA-4)/VCAM-1 Cell-Based Screening Assay (cell adhesion); conditions: Calcein-AM labeled Ramos cells, VCAM-1 coated plates
T1 construct: Ramos cells bearing cell-surface VLA-4; endogenous in cells; host or cells: Ramos cells (VLA-4); VCAM-1 partner made in CHO cells
Method: Ramos (VLA-4)/VCAM-1 Cell-Based Screening Assay Protocol
Soluble recombinant human VCAM-1 (mixture of 5- and 7-Ig domain) was purified from CHO cell culture media by immunoaffinity chromatography and maintained in a solution containing 0.1 M Tris-glycine (pH 7.5), 0.1 M NaCl, 5 mM EDTA, 1 mM PMSF, […] NaN3 and 10 μg/mL leupeptin. Calcein-AM was purchased from Molecular Probes Inc.
VLA-4 (α4β1 integrin) antagonist activity, defined as ability to compete with cell-surface VLA-4 for binding to immobilized VCAM-1, was quantitated using a Ramos-VCAM-1 cell adhesion assay. Ramos cells bearing cell-surface VLA-4, were labeled with a fluorescent dye (Calcein-AM) and allowed to bind VCAM-1 in the presence or absence of test compounds. A reduction in fluorescence intensity associated with adherent cells (% inhibition) reflected competitive inhibition of VLA-4 mediated cell adhesion by the test compound.
Initially, this entailed coating 96 well plates (Nunc Maxisorp) with recombinant human VCAM-1 (100 ng in 100 μl PBS), sealing each plate and allowing the plates to stand at 4° C. for ≈18 hr. The VCAM-coated plates were subsequently washed twice with 0.05% Tween-20 in PBS, and then blocked for 1 hr (room temperature) with 200 μl of Blocking Buffer (1% BSA/0.02% thimerosal) to reduce non-specific binding. Following the incubation with Blocking Buffer, plates were inverted, blotted and the remaining buffer aspirated. Each plate was then washed with 300 μl PBS, inverted and the remaining PBS aspirated.
Test compounds were dissolved in 100% DMSO and then diluted 1:25 in VCAM Cell Adhesion Assay Buffer (4 mM CaCl2, 4 mM MgCl2 in 50 mM TRIS-HCl, pH 7.5) (final DMSO=4%). A series of eight 1:4 dilutions were performed for each compound (general concentration range of 1 nM-12,500 nM). 100 μl/well of each dilution was added to the VCAM-coated plates, followed by 100 μl of Ramos cells (200,000 cells/well in 1% BSA/PBS). Plates containing test compounds and Ramos cells were allowed to incubate for 45 min at room temperature, after which 165 μl/well PBS was added. Plates were inverted to remove non-adherent cells, blotted and 300 μL/well PBS added. Plates were again inverted, blotted and the remaining buffer gently aspirated. 100 μl Lysis Buffer (0.1% SDS in 50 mM TRIS-HCl, pH 8.5) was added to each well and agitated for 2 min on a rotary shaking platform. The plates were then read for fluorescence intensity on a Cytofluor 2300 (Millipore) fluorecence measurement system (excitation=485 nm, emission=530 nm).
The results are provided in the following Table II (A=IC50<100 nM, B=IC50<10000 nM, C=IC50<5,000 nM): […]

T1 sequence (P13612 34-1032): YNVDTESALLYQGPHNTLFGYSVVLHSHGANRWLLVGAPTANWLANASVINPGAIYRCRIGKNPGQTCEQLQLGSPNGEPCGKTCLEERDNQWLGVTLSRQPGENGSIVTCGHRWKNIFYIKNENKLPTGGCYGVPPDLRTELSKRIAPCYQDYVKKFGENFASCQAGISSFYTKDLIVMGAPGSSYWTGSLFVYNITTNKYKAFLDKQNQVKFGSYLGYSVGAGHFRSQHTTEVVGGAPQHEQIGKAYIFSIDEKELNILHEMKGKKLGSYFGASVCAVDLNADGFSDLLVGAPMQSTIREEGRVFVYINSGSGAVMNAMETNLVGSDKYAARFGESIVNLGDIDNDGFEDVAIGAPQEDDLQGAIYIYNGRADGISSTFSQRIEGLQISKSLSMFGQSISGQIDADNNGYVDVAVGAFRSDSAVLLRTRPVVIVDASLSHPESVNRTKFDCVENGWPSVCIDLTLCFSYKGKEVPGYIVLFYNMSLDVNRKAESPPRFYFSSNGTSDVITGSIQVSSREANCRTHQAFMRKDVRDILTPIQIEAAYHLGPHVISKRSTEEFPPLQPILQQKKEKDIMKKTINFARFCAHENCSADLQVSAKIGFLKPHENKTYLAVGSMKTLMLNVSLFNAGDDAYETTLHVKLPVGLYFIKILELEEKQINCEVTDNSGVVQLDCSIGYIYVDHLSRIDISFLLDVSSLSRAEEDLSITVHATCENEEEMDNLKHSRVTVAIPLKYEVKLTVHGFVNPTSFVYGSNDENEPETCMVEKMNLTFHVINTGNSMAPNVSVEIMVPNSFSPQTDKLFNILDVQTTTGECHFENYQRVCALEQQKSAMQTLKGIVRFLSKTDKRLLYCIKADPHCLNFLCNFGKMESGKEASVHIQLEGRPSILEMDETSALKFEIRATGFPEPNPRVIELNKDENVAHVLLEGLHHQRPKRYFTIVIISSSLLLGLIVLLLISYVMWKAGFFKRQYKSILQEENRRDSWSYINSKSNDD
T1 sequence (P05556 21-798): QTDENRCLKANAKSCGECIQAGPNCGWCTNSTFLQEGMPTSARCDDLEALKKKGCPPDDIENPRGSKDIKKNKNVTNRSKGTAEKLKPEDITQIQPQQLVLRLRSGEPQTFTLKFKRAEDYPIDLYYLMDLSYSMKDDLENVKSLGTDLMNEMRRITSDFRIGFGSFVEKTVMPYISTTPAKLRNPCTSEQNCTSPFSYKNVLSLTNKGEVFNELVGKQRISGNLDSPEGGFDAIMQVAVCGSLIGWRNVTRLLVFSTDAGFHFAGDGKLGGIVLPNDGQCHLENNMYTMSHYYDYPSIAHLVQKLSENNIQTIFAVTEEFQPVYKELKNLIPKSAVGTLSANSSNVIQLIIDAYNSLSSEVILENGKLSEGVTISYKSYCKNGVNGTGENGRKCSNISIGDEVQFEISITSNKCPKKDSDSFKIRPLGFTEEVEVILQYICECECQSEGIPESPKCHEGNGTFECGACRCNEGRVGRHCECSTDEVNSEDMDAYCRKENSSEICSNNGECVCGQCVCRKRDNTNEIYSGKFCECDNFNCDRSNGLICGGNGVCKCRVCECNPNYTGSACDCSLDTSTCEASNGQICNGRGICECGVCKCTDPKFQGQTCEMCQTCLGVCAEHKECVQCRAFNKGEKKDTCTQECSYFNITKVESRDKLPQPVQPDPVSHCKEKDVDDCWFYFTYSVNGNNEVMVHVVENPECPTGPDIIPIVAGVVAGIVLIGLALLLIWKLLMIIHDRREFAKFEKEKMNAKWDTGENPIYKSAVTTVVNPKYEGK

Row | Compound | melting point | IC50 [1]
1 | COCCC1(C(=O)N[C@@H](Cc2ccc(-c3c(C(F)(F)F)cc(C)n(C)c3=O)cc2)C(=O)O)CCCC1 [Example 37, N-[[1-(2-methoxyethyl)cyclopentyl]carbonyl]-4-[1,6-dimethyl-4-(trifluoromethyl)-2-oxo-3-pyridinyl]-L-phenylalanine] | 181 to 183 °C | < 10 µM
2 | Cc1cccc(C(C)C)c1C(=O)N[C@@H](Cc1ccc(-c2c(C(F)(F)F)cc(C)n(C)c2=O)cc1)C(=O)O [Example 35, N-[(2-(1-methylethyl)-6-methylphenyl)carbonyl]-4-[1,6-dimethyl-4-(trifluoromethyl)-2-oxo-3-pyridinyl]-L-phenylalanine] | – | < 10 µM
3 | Cc1ccn(C)c(=O)c1-c1ccc(C[C@H](NC(=O)c2c(Cl)cccc2Cl)C(=O)O)cc1 [Example 31, N-[(2,6-dichlorophenyl)carbonyl]-4-(1,4-dimethyl-2-oxo-3-pyridinyl)-L-phenylalanine] | – | < 10 µM
4 | Cc1cccc(Cl)c1C(=O)N[C@@H](Cc1ccc(-c2c(C)ccn(C)c2=O)cc1)C(=O)O [Example 32, N-[(2-chloro-6-methylphenyl)carbonyl]-4-(1,4-dimethyl-2-oxo-3-pyridinyl)-L-phenylalanine] | – | < 10 µM
5 | Cc1cccc(Cl)c1C(=O)N[C@@H](Cc1ccc(-c2cccn(C)c2=O)cc1)C(=O)O [Example 30, N-[(2-chloro-6-methylphenyl)carbonyl]-4-(1-methyl-2-oxo-3-pyridinyl)-L-phenylalanine] | 204 to 210 °C | < 10 µM

Second part, the compound after the results:

Row | melting point | IC50 [1] | Compound
6 | 219 to 221 °C | < 10 µM | CCc1cccc(C)c1C(=O)N[C@@H](Cc1ccc(-c2c(C(F)(F)F)cc(C)n(C)c2=O)cc1)C(=O)O [Example 34, N-[(2-ethyl-6-methylphenyl)carbonyl]-4-[1,6-dimethyl-4-(trifluoromethyl)-2-oxo-3-pyridinyl]-L-phenylalanine]
7 | 220 to 223 °C | < 0.1 µM | Cc1cccc(Cl)c1C(=O)N[C@@H](Cc1ccc(-c2c(C(F)(F)F)cc(C)n(C)c2=O)cc1)C(=O)O [Example 36, N-[(2-chloro-6-methylphenyl)carbonyl]-4-[1,6-dimethyl-4-(trifluoromethyl)-2-oxo-3-pyridinyl]-L-phenylalanine]
8 | – | < 0.1 µM | Cc1cc(C(F)(F)F)c(-c2ccc(C[C@H](NC(=O)c3c(Cl)cccc3Cl)C(=O)O)cc2)c(=O)n1C [Example 33, N-[(2,6-dichlorophenyl)carbonyl]-4-[1,6-dimethyl-4-(trifluoromethyl)-2-oxo-3-pyridinyl]-L-phenylalanine]
